c1ccc(-c2ccc(C(c3ccccc3)n3ccnc3)cc2)cc1 (stereo not given)
solubility (mole fraction)
Details | 278.15 K | 283.15 K | 288.15 K | 293.15 K | 298.15 K | 303.15 K | 308.15 K | 313.15 K | 318.15 K
in isopropanol | 0.00118 | 0.00165 | 0.00222 | 0.00309 | 0.0041 | 0.00554 | 0.00722 | 0.00951 | 0.0123
in methanol | 0.00228 | 0.00304 | 0.00395 | 0.00517 | 0.0066 | 0.00844 | 0.0106 | 0.0135 | 0.0166
in n-propanol | 0.00142 | 0.00196 | 0.00266 | 0.00355 | 0.00468 | 0.00612 | 0.00799 | 0.0106 | 0.0134
in propylene glycol | 0.0017 | 0.00233 | 0.00316 | 0.00418 | 0.00547 | 0.00707 | 0.00916 | 0.0117 | 0.0149
in water | 6.6e-06 | 9.22e-06 | 1.27e-05 | 1.7e-05 | 2.05e-05 | 2.88e-05 | 3.87e-05 | 4.82e-05 | 6.11e-05
